These results are taken from ChEMBL document CHEMBL6182862, “Discovery of novel azetidine-based imidazopyridines as selective and orally bioavailable inhibitors of phosphodiesterase 10A for the treatment of pulmonary arterial hypertension” (Eur J Med Chem, 2025).

Series [1] in a line: in vitro. Conditions: rat, liver microsomes. (Liver microsomes are vesicles of endoplasmic reticulum, rich in cytochrome P450 enzymes.)
In another series the target is Cytochrome P450 3A4 (Homo sapiens, UniProt P08684). The experiment in a line: Inhibition of CYP3A4 (unknown origin). The series is classed as ADME.
Series [2] can be described thus: in vitro. Conditions: PAMPA. Background: PAMPA measures passive passage across an artificial lipid membrane.
Series [3] deals with cAMP and cAMP-inhibited cGMP 3',5'-cyclic phosphodiesterase 10A (Homo sapiens, UniProt Q9Y233).
The next series deals with Cytochrome P450 2D6 (Homo sapiens, UniProt P10635). The experiment in a line: Inhibition of CYP2D6 (unknown origin). The format is ADME.
The target of series [4] is High affinity 3',5'-cyclic-AMP phosphodiesterase 7A (Homo sapiens, UniProt Q13946). Nature of the series: Inhibition of PDE7A1 (130 to 482 residues) (unknown origin) using 3H-cAMP as substrate incubated for 15 mins by liquid scintillation counter analysis.
For a further series, the target named is T1, Cytochrome P450 1A2 (Homo sapiens, UniProt P05177).
T1 sequence (P05177 whole entry): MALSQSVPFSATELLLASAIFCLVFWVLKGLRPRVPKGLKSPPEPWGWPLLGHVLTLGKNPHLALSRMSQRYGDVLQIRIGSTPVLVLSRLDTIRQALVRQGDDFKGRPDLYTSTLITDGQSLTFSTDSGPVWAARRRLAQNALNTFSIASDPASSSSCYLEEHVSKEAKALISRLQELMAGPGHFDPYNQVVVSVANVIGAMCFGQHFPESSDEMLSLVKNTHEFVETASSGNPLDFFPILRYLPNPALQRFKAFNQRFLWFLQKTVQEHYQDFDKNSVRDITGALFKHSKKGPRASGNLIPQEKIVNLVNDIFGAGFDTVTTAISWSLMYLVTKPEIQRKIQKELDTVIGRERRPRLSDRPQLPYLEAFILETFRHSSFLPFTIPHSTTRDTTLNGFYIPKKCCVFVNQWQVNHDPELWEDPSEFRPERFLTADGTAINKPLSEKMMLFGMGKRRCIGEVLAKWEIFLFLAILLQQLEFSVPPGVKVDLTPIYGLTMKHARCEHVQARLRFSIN
The experiment in a line: Inhibition of CYP1A2 (unknown origin). The format is ADME.

Series [5] addresses 3',5'-cyclic-AMP phosphodiesterase 4D (Homo sapiens, UniProt Q08499). Nature of the series: Inhibition of PDE4D (86 to 413 residues) (unknown origin) using 3H-cAMP as substrate incubated for 15 mins by liquid scintillation counter analysis.
Series [6] concerns the target cGMP-dependent 3',5'-cyclic phosphodiesterase (Homo sapiens, UniProt O00408). Nature of the series: Inhibition of PDE2A (580 to 919 residues) (unknown origin) using 3H-cGMP as substrate incubated for 15 mins by liquid scintillation counter analysis.
In series [7] the target is Dual specificity calcium/calmodulin-dependent 3',5'-cyclic nucleotide phosphodiesterase 1C (Homo sapiens, UniProt Q14123). Nature of the series: Inhibition of PDE1C (147 to 531 residues) (unknown origin) using 3H-cGMP/3H-cAMP as substrate incubated for 15 mins by liquid scintillation counter analysis.
The target of another series is Cytochrome P450 2C9 (Homo sapiens, UniProt P11712). Nature of the series: Inhibition of CYP2C9 (unknown origin). The format is ADME.
In the next series the target is Cytochrome P450 2C19 (Homo sapiens, UniProt P33261). The experiment in a line: Inhibition of CYP2C19 (unknown origin). The series is classed as ADME.
The target of series [8] is cGMP-inhibited 3',5'-cyclic phosphodiesterase 3A (Homo sapiens, UniProt Q14432). The experiment in a line: Inhibition of PDE3A (679 to 1087 residues) (unknown origin) using 3H-cAMP as substrate incubated for 15 mins by liquid scintillation counter analysis.
In series [9] the target is Cone cGMP-specific 3',5'-cyclic phosphodiesterase subunit alpha' (Homo sapiens, UniProt P51160). Nature of the series: Inhibition of PDE6C (1 to 858 residues) (unknown origin) using 3H-cGMP as substrate incubated for 15 mins by liquid scintillation counter analysis.
In series [10] the target is Dual 3',5'-cyclic-AMP and -GMP phosphodiesterase 11A (Homo sapiens, UniProt Q9HCR9). The experiment in a line: Inhibition of PDE11A4 (588 to 911 residues) (unknown origin) using 3H-cGMP/3H-cAMP as substrate incubated for 15 mins by liquid scintillation counter analysis.
The target in series [11] is cGMP-specific 3',5'-cyclic phosphodiesterase (Homo sapiens, UniProt O76074). The experiment in a line: Inhibition of PDE5A1 (535 to 860 residues) (unknown origin) extracted from Escherichia coli BL21 using 3H-cGMP as substrate incubated for 15 mins by liquid scintillation counter analysis.
The target of series [12] is High affinity cGMP-specific 3',5'-cyclic phosphodiesterase 9A (Homo sapiens, UniProt O76083). Nature of the series: Inhibition of recombinant PDE9A2 (181 to 506 residues) (unknown origin) extracted from Escherichia coli BL21 using 3H-cGMP as substrate incubated for 15 mins by liquid scintillation counter analysis.

Some results are limits rather than exact numbers.

Sequence of Cytochrome P450 3A4 (P08684 whole entry): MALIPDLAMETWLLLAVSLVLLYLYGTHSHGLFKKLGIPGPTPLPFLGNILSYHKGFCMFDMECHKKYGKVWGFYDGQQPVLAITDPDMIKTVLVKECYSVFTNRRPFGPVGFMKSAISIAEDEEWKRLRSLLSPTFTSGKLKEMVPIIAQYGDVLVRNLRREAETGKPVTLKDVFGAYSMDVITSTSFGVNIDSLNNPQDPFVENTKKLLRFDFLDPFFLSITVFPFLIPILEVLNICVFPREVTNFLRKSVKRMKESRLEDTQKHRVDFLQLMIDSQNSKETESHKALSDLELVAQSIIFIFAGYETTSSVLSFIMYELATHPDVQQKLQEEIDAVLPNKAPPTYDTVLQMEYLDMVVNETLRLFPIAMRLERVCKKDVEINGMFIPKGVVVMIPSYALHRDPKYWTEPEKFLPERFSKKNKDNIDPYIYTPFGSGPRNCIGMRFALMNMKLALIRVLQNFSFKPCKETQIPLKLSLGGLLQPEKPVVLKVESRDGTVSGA
Sequence of cAMP and cAMP-inhibited cGMP 3',5'-cyclic phosphodiesterase 10A (Q9Y233 whole entry): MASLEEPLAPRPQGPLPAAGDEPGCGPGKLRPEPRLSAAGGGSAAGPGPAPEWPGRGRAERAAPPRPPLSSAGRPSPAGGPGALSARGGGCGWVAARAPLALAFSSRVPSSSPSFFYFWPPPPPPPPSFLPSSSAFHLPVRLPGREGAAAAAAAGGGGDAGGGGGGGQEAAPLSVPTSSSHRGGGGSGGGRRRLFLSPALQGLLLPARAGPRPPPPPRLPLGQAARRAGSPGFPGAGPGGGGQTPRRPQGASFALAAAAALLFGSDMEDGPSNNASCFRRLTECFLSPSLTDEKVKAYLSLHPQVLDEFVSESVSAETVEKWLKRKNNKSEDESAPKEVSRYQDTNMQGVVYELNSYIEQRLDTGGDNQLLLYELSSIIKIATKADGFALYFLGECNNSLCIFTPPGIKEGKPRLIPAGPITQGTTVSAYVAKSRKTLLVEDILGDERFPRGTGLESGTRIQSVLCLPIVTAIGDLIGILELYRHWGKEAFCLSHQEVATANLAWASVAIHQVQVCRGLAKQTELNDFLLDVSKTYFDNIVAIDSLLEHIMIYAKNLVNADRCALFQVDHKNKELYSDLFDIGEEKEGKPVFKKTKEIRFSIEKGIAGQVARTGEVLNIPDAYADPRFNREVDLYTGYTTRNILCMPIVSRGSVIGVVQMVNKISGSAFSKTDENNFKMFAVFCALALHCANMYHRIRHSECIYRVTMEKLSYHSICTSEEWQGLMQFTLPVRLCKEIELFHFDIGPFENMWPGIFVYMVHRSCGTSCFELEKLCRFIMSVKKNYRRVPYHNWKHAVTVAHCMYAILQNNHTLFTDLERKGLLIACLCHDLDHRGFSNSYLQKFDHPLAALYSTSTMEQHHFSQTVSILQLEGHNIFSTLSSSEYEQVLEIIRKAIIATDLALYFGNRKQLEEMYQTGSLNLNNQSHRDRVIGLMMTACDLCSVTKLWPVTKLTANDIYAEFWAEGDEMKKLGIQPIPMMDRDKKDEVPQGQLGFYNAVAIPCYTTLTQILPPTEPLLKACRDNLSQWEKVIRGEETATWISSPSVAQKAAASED
Sequence of Cytochrome P450 2C19 (P33261 whole entry, the tested form may be a part): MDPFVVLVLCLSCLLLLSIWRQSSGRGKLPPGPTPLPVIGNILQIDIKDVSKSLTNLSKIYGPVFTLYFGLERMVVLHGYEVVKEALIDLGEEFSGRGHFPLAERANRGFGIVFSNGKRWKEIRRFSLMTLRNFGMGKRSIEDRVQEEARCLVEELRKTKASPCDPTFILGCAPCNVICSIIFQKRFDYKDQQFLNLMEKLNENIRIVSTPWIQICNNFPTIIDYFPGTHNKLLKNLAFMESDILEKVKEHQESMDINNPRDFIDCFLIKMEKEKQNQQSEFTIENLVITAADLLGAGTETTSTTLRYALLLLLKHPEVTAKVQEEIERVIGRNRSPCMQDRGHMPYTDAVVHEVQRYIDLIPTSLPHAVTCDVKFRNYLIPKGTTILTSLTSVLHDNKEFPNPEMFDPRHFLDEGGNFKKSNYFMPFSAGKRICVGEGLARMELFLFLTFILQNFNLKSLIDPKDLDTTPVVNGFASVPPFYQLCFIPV
Sequence of Dual specificity calcium/calmodulin-dependent 3',5'-cyclic nucleotide phosphodiesterase 1C (Q14123 whole entry, the tested form may be a part): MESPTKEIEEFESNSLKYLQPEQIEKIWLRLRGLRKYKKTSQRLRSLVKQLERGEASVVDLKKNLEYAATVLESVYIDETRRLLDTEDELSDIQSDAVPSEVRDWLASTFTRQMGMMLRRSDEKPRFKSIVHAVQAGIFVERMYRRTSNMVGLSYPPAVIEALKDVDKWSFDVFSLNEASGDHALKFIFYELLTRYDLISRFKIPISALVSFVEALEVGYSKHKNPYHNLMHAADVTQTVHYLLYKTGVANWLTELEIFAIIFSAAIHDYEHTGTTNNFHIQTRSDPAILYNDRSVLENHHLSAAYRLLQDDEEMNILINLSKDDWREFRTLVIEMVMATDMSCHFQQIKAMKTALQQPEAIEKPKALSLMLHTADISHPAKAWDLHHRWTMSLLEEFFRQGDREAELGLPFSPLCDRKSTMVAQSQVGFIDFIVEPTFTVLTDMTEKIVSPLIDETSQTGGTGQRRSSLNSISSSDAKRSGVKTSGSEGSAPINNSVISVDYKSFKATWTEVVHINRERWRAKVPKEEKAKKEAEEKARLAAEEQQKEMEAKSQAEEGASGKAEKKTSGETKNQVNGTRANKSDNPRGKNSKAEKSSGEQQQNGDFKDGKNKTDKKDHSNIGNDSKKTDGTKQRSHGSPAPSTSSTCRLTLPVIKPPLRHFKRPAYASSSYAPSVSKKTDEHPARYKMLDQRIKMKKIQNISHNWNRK
Sequence of High affinity 3',5'-cyclic-AMP phosphodiesterase 7A (Q13946 whole entry, the tested form may be a part): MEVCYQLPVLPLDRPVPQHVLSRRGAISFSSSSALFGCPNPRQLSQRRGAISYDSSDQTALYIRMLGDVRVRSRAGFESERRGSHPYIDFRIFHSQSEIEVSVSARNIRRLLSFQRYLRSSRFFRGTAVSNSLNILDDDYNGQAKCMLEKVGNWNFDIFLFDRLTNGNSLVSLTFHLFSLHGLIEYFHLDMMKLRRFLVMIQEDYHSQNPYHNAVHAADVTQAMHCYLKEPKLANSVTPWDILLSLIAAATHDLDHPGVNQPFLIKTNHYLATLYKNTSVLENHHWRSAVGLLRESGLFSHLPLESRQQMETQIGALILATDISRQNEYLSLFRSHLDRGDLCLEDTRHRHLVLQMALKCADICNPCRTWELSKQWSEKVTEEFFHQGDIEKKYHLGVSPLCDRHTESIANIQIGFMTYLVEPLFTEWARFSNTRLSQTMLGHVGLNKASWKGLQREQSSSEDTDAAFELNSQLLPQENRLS
Sequence of cGMP-inhibited 3',5'-cyclic phosphodiesterase 3A (Q14432 whole entry, the tested form may be a part): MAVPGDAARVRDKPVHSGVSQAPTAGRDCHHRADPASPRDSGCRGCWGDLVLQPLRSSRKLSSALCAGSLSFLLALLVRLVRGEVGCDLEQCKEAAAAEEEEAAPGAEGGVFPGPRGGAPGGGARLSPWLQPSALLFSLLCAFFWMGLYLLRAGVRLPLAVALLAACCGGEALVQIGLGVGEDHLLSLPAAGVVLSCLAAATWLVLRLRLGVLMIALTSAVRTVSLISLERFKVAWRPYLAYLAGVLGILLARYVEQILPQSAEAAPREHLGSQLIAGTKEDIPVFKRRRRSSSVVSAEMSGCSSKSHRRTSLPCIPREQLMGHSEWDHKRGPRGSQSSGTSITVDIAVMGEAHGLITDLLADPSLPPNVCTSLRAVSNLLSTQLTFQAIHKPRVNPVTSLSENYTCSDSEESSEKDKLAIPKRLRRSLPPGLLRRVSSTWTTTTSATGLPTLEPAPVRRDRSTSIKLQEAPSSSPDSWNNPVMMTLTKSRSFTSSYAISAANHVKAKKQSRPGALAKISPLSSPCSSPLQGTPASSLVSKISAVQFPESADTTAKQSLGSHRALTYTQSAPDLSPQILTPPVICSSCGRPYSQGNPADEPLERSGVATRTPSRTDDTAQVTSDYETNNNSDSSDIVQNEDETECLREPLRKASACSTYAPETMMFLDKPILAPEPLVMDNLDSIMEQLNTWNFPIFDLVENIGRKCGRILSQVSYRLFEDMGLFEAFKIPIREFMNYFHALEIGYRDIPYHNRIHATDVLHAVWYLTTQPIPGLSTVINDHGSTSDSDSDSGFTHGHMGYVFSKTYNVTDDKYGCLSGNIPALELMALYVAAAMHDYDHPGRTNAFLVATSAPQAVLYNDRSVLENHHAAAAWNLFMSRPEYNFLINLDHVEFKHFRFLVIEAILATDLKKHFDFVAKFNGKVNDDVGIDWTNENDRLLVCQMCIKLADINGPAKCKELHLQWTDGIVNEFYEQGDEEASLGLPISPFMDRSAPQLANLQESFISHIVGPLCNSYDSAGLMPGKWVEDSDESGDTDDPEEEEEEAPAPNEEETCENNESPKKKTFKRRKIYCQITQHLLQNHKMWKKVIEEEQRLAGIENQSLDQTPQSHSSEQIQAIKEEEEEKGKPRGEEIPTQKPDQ
Sequence of High affinity cGMP-specific 3',5'-cyclic phosphodiesterase 9A (O76083 whole entry, the tested form may be a part): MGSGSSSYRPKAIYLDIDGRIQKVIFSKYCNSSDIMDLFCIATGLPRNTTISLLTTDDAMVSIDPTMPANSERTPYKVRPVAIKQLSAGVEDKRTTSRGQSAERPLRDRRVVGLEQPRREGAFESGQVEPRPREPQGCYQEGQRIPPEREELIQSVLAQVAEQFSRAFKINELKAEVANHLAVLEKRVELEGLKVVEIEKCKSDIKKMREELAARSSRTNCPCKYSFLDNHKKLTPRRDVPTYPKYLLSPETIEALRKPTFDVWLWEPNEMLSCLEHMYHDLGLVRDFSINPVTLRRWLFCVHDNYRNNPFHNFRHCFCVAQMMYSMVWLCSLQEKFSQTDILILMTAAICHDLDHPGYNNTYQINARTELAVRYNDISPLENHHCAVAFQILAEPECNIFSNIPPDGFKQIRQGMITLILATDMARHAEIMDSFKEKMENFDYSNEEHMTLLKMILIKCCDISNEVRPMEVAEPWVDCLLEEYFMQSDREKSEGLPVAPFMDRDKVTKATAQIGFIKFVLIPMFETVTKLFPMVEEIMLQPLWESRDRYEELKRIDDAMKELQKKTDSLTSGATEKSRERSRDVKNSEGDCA

The compound `Cc1ccc2c(c1)nc(/C=C/c1cccc3cccnc13)n2-c1cccc(OCCCN2CCN(C)CC2)c1` came in with a half-life in the series “in vitro [1]” of 25 min. Further, it took 0.21 µM to reach half-maximal inhibition at Cytochrome P450 3A4 (IC50). For the same compound, in the series “in vitro [2]”, the Papp was found to be 1.47 ×10⁻⁶ cm/s.

Compound `Cc1ccc2c(c1)nc(C1CN(c3nc(Cl)nc4ccccc34)C1)n2-c1ccccc1` came in with a half-life in the series “in vitro [1]” of 0.72 min. Besides, in series [3], it took 0.0312 µM to reach half-maximal inhibition (IC50).

Consider `CCOC(=O)c1c(C2CN(c3cc(C(=O)NCCN(CC)CC)c4ccccc4n3)C2)nc2ccccn12`, for which the IC50 is more than 30 µM at Cytochrome P450 3A4; 9.7 µM at Cytochrome P450 2D6; more than 10 µM in [4]; more than 30 µM against Cytochrome P450 1A2; 1.28 µM in series [5]; more than 10 µM in series [6]. Besides, the IC50 in [7] is more than 10 µM; at Cytochrome P450 2C9, more than 30 µM; against Cytochrome P450 2C19 it was more than 30 µM; in series [8] it was more than 10 µM; in series [9], more than 10 µM; in series [10], more than 10 µM. Further, the IC50 in [11] and in series [12] was more than 10 µM each time.

As usually defined, the half-life is the time in which the quantity being followed falls by half. The low end stands for fast loss, the high end for slow loss. As a reminder, the IC50 is the concentration that inhibits the measured activity by half. A word on the Papp: it is a coefficient for how fast a substance crosses the barrier. A lower Papp goes with poor permeation.
